Some test systems named below: KM12 colon; MALME-3M melanoma; OVCAR-8 ovarian; OVCAR-5 ovarian; SW-620 colon; SK-MEL-2 melanoma; SF-295 CNS; HOP-62 NSCLC.
Experiment in all cases: inhibition of tumour cell growth, NCI panel, 48 h

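Each compound was tested at five concentrations against cells in 96-well plates for 48 hours. GI50 = concentration required for 50% inhibition of growth. TGI marks complete inhibition of growth.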

For `COc1ccccc1CNCCCN1C(=O)c2ccc3c4c(ccc(c24)C1=O)C(=O)N(CCCNCCCCNCCCN)C3=O`, the GI50 is 0.338 µM with KM12 colon; 0.241 µM with MALME-3M melanoma; 0.285 µM in the experiment on OVCAR-8 ovarian; 2.03 µM in the experiment on OVCAR-5 ovarian; 0.26 µM in the experiment on SW-620 colon; 0.227 µM in the experiment with SK-MEL-2 melanoma. The GI50 was 1.06 µM with SF-295 CNS and 0.658 µM in the experiment on HOP-62 NSCLC. Besides, the TGI is 1.46 µM in the experiment with KM12 colon; 0.546 µM in the experiment with MALME-3M melanoma; 2.19 µM in the experiment with OVCAR-8 ovarian; 11 µM in the experiment on OVCAR-5 ovarian; 1.28 µM in the experiment with SW-620 colon; 0.591 µM in the experiment on SK-MEL-2 melanoma. Besides, the figures for the TGI in the experiment on SF-295 CNS and with HOP-62 NSCLC were 6.79 µM and 2.25 µM, respectively.

Turning to `COc1cc(/C=C2\CCC/C(=C\c3cc(CN4CCCC4)c(O)c(OC)c3)C2=O)cc(CN2CCCC2)c1O`, the GI50 was 2.73 µM with KM12 colon; 2.73 µM in the experiment on MALME-3M melanoma; 3.27 µM in the experiment with OVCAR-8 ovarian; 4.18 µM with OVCAR-5 ovarian; 3.62 µM in the experiment with SW-620 colon; 5.09 µM in the experiment on SK-MEL-2 melanoma. In addition, the GI50 is 9.89 µM with SF-295 CNS and 2.93 µM in the experiment with HOP-62 NSCLC. Moreover, the TGI in the experiment on KM12 colon is 7.15 µM; in the experiment on MALME-3M melanoma it was 6.41 µM; in the experiment on OVCAR-8 ovarian it was > 100 µM; with OVCAR-5 ovarian it was 13.4 µM; in the experiment on SW-620 colon it was 12.9 µM; in the experiment with SK-MEL-2 melanoma, 19.5 µM. The TGI with SF-295 CNS was found to be 25.2 µM; with HOP-62 NSCLC it was 9.35 µM.

Regarding `CCOc1cc(Cl)c(C(C)NC(=O)c2cccc(OC)c2)cc1OCC` (stereo unspecified), the GI50 in the experiment on KM12 colon is 7.19 µM; with MALME-3M melanoma, 9.42 µM; in the experiment on OVCAR-8 ovarian it was 25.7 µM; in the experiment on OVCAR-5 ovarian, > 52.7 µM; in the experiment on SW-620 colon, 4 µM; in the experiment with SK-MEL-2 melanoma it was 4.67 µM. The GI50 with SF-295 CNS was 5.99 µM; in the experiment with HOP-62 NSCLC, 6.94 µM. The TGI with KM12 colon, in the experiment with MALME-3M melanoma, in the experiment with OVCAR-8 ovarian, in the experiment on OVCAR-5 ovarian, in the experiment with SW-620 colon and with SK-MEL-2 melanoma was > 100 µM in each case. Further, the TGI in the experiment with SF-295 CNS was > 84.5 µM; with HOP-62 NSCLC it was > 100 µM.

Regarding `CCOC(=O)C#Cc1cccc(C#CC(=O)OCC)c1`, the TGI in the experiment with KM12 colon worked out at 15.2 µM; in the experiment on MALME-3M melanoma, 12.1 µM; with OVCAR-8 ovarian, 26 µM; in the experiment with OVCAR-5 ovarian, 2.4 µM; in the experiment with SW-620 colon, 14.6 µM; with SK-MEL-2 melanoma it was 5.04 µM. In addition, the TGI in the experiment on SF-295 CNS stood at 3.48 µM; with HOP-62 NSCLC it was 11.6 µM.

As for `CC[C@]12C=CCN3CC[C@@]4(c5ccc(OC)cc5N(C)[C@H]4[C@@](O)(C(=O)OC)[C@@H]1OC(=O)CCC(=O)O[C@H]1CC[C@H]4[C@@H]5CCC6=CC(=O)CC[C@@H]6[C@H]5CC[C@]14C)[C@@H]32`, the GI50 in the experiment with KM12 colon is 1.88 µM; in the experiment with MALME-3M melanoma, 1.64 µM; in the experiment on OVCAR-8 ovarian, 2.24 µM; with OVCAR-5 ovarian, 1.9 µM; with SW-620 colon, 2.12 µM; with SK-MEL-2 melanoma, 1.24 µM. Further, the values for the GI50 in the experiment on SF-295 CNS and in the experiment on HOP-62 NSCLC were 1.69 µM and 2.4 µM, respectively. The TGI with KM12 colon was > 50 µM; with MALME-3M melanoma, 21.1 µM; in the experiment with OVCAR-8 ovarian, > 50 µM; with OVCAR-5 ovarian it was > 50 µM; with SW-620 colon, > 50 µM; with SK-MEL-2 melanoma, 2.85 µM. In addition, the TGI with SF-295 CNS and in the experiment with HOP-62 NSCLC was > 50 µM each time.

Consider `C=C(C(=O)c1ccccc1)C(NC(C)(C)C)c1ccccc1` (stereo unspecified), for which the GI50 was 2.22 µM in the experiment with KM12 colon; 1.91 µM in the experiment with MALME-3M melanoma; 3.02 µM with OVCAR-8 ovarian; 2.37 µM with OVCAR-5 ovarian; 1.14 µM in the experiment on SW-620 colon; 1.88 µM with SK-MEL-2 melanoma. In addition, the results for the GI50 with SF-295 CNS and with HOP-62 NSCLC were 2.9 µM and 3.38 µM, respectively. Besides, the TGI with KM12 colon is 6.36 µM; with MALME-3M melanoma it was 4.33 µM; with OVCAR-8 ovarian it was 10.8 µM; in the experiment with OVCAR-5 ovarian, 4.65 µM; in the experiment with SW-620 colon, 3.44 µM; in the experiment with SK-MEL-2 melanoma it was 4.78 µM. Further, the TGI in the experiment with SF-295 CNS came out at 10.8 µM; in the experiment on HOP-62 NSCLC it was 10.4 µM.

For the compound `COc1ccc(OC)c(C2=C(c3cn(C)c4ccccc34)C(=O)NC2=O)c1`, the GI50 with KM12 colon is 22.4 µM; in the experiment on MALME-3M melanoma, > 25 µM; in the experiment with OVCAR-8 ovarian, > 25 µM; with OVCAR-5 ovarian it was > 25 µM; in the experiment on SW-620 colon, 20.8 µM; with SK-MEL-2 melanoma it was > 25 µM. Moreover, the GI50 in the experiment with SF-295 CNS was > 22.7 µM; with HOP-62 NSCLC, > 25 µM. Besides, the TGI in the experiment with KM12 colon, in the experiment with MALME-3M melanoma, with OVCAR-8 ovarian, in the experiment on OVCAR-5 ovarian, in the experiment on SW-620 colon and in the experiment with SK-MEL-2 melanoma was > 25 µM each time. The TGI with SF-295 CNS and in the experiment with HOP-62 NSCLC was > 25 µM in each case.

Turning to `COc1ccc(N=Nc2ccc(O)c(=O)cc2)cc1`, the GI50 with KM12 colon was 3.66 µM; in the experiment with MALME-3M melanoma, 2.86 µM; in the experiment with OVCAR-8 ovarian it was 2.88 µM; in the experiment with OVCAR-5 ovarian, 5.89 µM; in the experiment on SW-620 colon it was 4.08 µM; with SK-MEL-2 melanoma, 5.01 µM. Further, the figures for the GI50 in the experiment on SF-295 CNS and in the experiment with HOP-62 NSCLC were 3.79 µM and 4.19 µM, respectively. In addition, the TGI with KM12 colon was > 100 µM; with MALME-3M melanoma, 14.2 µM; in the experiment on OVCAR-8 ovarian, > 100 µM; in the experiment with OVCAR-5 ovarian it was > 100 µM; in the experiment with SW-620 colon, > 100 µM; with SK-MEL-2 melanoma, 41.1 µM. Besides, the TGI was > 100 µM in the experiment on SF-295 CNS and 41.8 µM in the experiment on HOP-62 NSCLC.

As to `COc1ccc2[nH]c(C(=O)OCc3ccc4c(Br)cc(Br)c(O)c4n3)cc2c1`, the GI50 is 1.64 µM in the experiment with KM12 colon; 1.45 µM in the experiment with MALME-3M melanoma; 0.907 µM in the experiment with OVCAR-8 ovarian; 1.21 µM in the experiment with OVCAR-5 ovarian; 0.364 µM in the experiment on SW-620 colon; 1.55 µM in the experiment on SK-MEL-2 melanoma. The GI50 in the experiment with SF-295 CNS was 2.02 µM; in the experiment with HOP-62 NSCLC, 1.38 µM. Also, the TGI came out at 3.38 µM with KM12 colon; 2.85 µM with MALME-3M melanoma; 2.64 µM in the experiment on OVCAR-8 ovarian; 2.66 µM in the experiment on OVCAR-5 ovarian; 1.41 µM with SW-620 colon; 3.12 µM in the experiment with SK-MEL-2 melanoma. Besides, the TGI worked out at 5.33 µM in the experiment on SF-295 CNS and 3.34 µM in the experiment with HOP-62 NSCLC.

For the origin of these results see PubChem BioAssay (NCI).
